Laboratory results taken from patent publication US10864269B2, “Therapeutic combinations comprising anti-CD73 antibodies and uses thereof” (MedImmune Limited, priority 2014, dated 2020).

Key:
[1] = target: T1, surface-expressed CD73, NCI-H322 cells (Homo sapiens, UniProt P21589); experiment: Cell-based inhibition of 5′ ectonucleotidase (CD73-catalyzed hydrolysis of AMP); conditions: CD73-expressing NSCLC cells, 200 μM AMP, 24 hours
T1 construct: In a cell-based assay of surface-expressed CD73; endogenous in cells; host or cells: NCI-H322
T1 sequence (P21589 27-549): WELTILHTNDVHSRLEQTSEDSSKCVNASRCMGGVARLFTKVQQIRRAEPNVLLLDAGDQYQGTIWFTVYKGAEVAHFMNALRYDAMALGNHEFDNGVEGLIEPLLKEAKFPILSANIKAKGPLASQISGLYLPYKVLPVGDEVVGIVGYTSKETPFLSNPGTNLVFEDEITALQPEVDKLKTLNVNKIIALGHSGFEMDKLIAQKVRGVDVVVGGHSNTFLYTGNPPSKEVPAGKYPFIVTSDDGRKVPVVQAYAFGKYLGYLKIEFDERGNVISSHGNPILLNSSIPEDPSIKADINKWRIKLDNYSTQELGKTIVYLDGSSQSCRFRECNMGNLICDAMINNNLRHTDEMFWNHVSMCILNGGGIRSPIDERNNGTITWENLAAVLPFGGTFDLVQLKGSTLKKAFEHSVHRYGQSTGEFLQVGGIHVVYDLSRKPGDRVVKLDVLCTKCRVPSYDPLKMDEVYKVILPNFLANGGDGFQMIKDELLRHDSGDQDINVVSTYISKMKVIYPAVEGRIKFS
Procedure: In this study, the functional activity of MEDI9447 was determined in an in vitro assay that measured the CD73-catalyzed hydrolysis of AMP using a human non-small cell carcinoma cell line, NCI-H322. Formulation of MEDI9447 was prepared by diluting its stock solution in serum-free RPMI medium to a final concentration of 1 μM. Formulation of R347 was prepared by diluting its stock solution in RPMI to a final concentration of 1 μM.
NCI-H322 cells were centrifuged for 5 minutes at 1500 rpm. The supernatant was removed and replaced with serum-free RPMI medium. The cell suspension was counted using the VI-CELL (Beckman, Coulter) cell counter. The cells were plated into 96-well plates at a cell density of 10,000 cells per 100 μLs per well. […], of 4× concentrated AMP (200 μM) was added. […] Cellular enzyme inhibition of 5′ ectonucleotidase was measured on a multilabel reader, the Perkin-Elmer Envision Workstation. The samples were analyzed using Prism Software.
The results depicted in FIG. 3 were obtained using CD73-expressing NSCLC cells that were plated into 96-well non-tissue culture treated plates (Falcon 3788) at 10,000 cells per well in 100 μL of RPMI medium without additives. […] CELLTITER-GLO® reagent (Promega) was added 1:1 and cellular CD73 enzyme AMP phosphorylase activity was determined by measuring ATP levels using the Envision luminescence plate reader (Perkin Elmer). […]

cynomolgus CD73 = experiment: Solution binding, cynomolgus CD73; conditions: as measured by solution binding
[2] = tested on: CT26 murine syngeneic tumors; experiment: CT26 syngeneic tumor model, MEDI9447 monotherapy; format: in vivo, Balb/C mice
Procedure: CT26 cells, which are derived from a murine colon cancer, were established by subcutaneous (SC) injection of 5×10^5 cells suspended in 0.1 mL of PBS into the right flanks of 4-to-6-week-old female mice. The mice were treated with MEDI9447 or with a control antibody.
10 mice per group were used in this study. Animals were randomly assigned into groups. Animals in Group 1 were untreated and Group 2 was administered an isotype control. MEDI9447 was administered to Group 3. Test articles were administered intraperitoneally twice weekly starting on Day 3. On Day 16, 5 animals from each group were necropsied and tumors were isolated.
Tumors were measured on Days 1, 7, 9, 12, 14, and 16 by caliper, and the volumes of tumors were calculated as follows: […] (1) The anticancer effects of MEDI9447 were expressed as percent tumor growth inhibition, which was calculated as follows: (Average tumor volume for MEDI9447/Average tumor volume for R347-TM)×100 (2)
Tumors were isolated for flow cytometry. Tumors were dissected from CT26 tumor-bearing mice on study Day 16. Tumors were cut into small pieces and were digested with collagenase. […] Dissociated cells were pelleted at 1000 rpm for 5 minutes at 4° C. and were re-suspended in fluorescence-activated cell sorting (FACS) buffer. Cells were counted on Vi-Cell using the default setting. […]

Substance: MEDI9447: IgG1 with CD730010-derived VL of SEQ ID NO: 68 and VH of SEQ ID NO: 82
- conversion of adenosine monophosphate to adenosine [1]: reduced in a dose-dependent manner
- Kd (cynomolgus CD73): ~0.09 nM
- tumor growth ([2]; CT26, Balb/C mice, 10 mg/kg IP 2X weekly): inhibited tumor growth
- proportion of tumor-infiltrating MDSCs ([2]; CT26 tumors harvested study Day 16, flow cytometry): reduced
